Assays:
[1] = tested on: rats subjected to chronic restraint stress; experiment: Sucrose preference test (SPT) after chronic restraint stress (CRS); assay type: in vivo, rat; settings: MRK-016 3 mg/kg
Text: (§1) MRK-016 rapidly reverses loss of sucrose preference and social interaction behaviors after chronic restraint stress (FIG. 9). […] This persisted for 7 days despite further stress exposure. and in the same animals after an additional week of CRS and 7 days after the injection of MRK-016.
(§2) Chronic restraint stress (CRS). Male Sprague Dawley rats (4-5 weeks-old; Harlan Laboratories) were placed in appropriately sized restraint tubes, highly restricting their movement for periods of four hours in a brightly lit lab, every day for ten days during the light phase of their diurnal cycle (Lim et al., 2012).
Sucrose preference test (SPT). Rats were given a choice between two bottles containing tap water or a 1% sucrose solution (Rygula et al., 2006). Testing was conducted overnight (16 hours), including the full duration of their dark phase. Animals were first trained with both bottles while group-housed. For subsequent tests, including during the baseline period, animals were individually housed. Sucrose preference was calculated as amount of the sucrose solution consumed as a percentage of the total amount of liquid consumed.
Drugs/stats. L-655,708 was purchased from Tocris Bioscience (R&D Systems, Minneapolis, Minn.) and prepared at a concentration of 5 mM in 75% saline/25% DMSO. […] This dose is sufficient to occupy about 70% of forebrain binding sites (Atack et al., 2005)
(§3) Several hedonic behaviors in rodents are sensitive to chronic stress and are restored by chronic, but not acute, administration of SSRIs, providing one means to screen for potential antidepressant compounds. First, it was determined whether L-655,708 would rapidly (<24 hrs) restore normal hedonic behavior following chronic restraint stress (Watanabe et al., 1992; Lim et al., 2012), consistent with the rapid antidepressant-like actions of ketamine (Li et al., 2011). Baseline measurements were first made of social interaction and sucrose preference, and then 4-5 week old rats were subjected to ten days of CRS. […]

[2] = tested on: rats subjected to chronic restraint stress; experiment: Social interaction test (SIT) after chronic restraint stress (CRS); assay type: in vivo, rat; settings: MRK-016 3 mg/kg
Text: as §1, §2
Social interaction test (SIT). As described previously (Berton et al., 2006), rats were placed in a plastic enclosure (82×82 cm) with a 5×5 grid of squares (16.4×16.4 cm) visible underneath the clear plastic flooring. A small translucent perforated plastic box (20×16 cm) was placed against the center of one wall of the arena. During the testing conditions white overhead fluorescent lighting was used to illuminate the arena. A video camera positioned 170 cm above the floor of the arena was used to track the movements of the rats during the experiment.
Each test consisted of a “target-absent” trial followed by a “target-present” trial. During testing, an individual test rat was placed in the center of the arena and, after 30s of adaptation, the rat's movements were recorded with the video camera for 2.5 minutes. […]
Results were quantified as the percentage of time spent in the “interaction zone” (the five grid squares immediately surrounding the plastic cage) as measured for both the “target-absent” and “target-present” trials. […]
as §3, with “2011).” for “2011). Baseline measurements were first made of social interaction and sucrose preference, and then 4-5 week old rats were subjected to ten days of CRS.”

[3] = tested on: TA-CA1 synapses; experiment: Anpirtoline (5-HT1BR agonist) potentiation of TA-CA1 EPSP slope in hippocampal slices; parameters: species or system rat; settings: slices after CUS
Experimental: Experiment B. Do alpha5 GABA-NAMs restore 5-HT1BR-mediated potentiation? One can consider whether alpha5 GABA-NAMs reverse another phenotypic alteration of stressed TA-CA 1 synapses: amplification and persistence of responses to the 5-HT1BR agonist anpirtoline (FIG. 3A) (Cai et al., 2013). Slices are prepared from the four groups described in Experiment A. Anpirtoline (501.1M) is bath applied for 60 min, followed by a 90 min washout period. In specific embodiments, anpirtoline potentiation of […], vehicle-injected controls and that injection of alpha5 GABA-NAM […], but has no effect in control rats (see FIG. 3B).

[4] = tested on: chronically stressed animals; settings: Li et al., 2011; cited from earlier work
[5] = tested on: depressive symptoms in humans; settings: acute administration; cited from earlier work

With `Cc1cc(-c2nncc3c(C(C)(C)C)c(OCc4ncnn4C)nn23)no1` [MRK-016, 3-tert-Butyl-7-(5-methylisooxazol-3-yl)-2-(1-methyl-1H-1,2,4-triazol-5-ylmethoxy)-pyrazolo[1,5-d]-[1,2,4] triazine] the “persistence of effect on sucrose preference” value ([1]; CRS continued) was 7 days, the sucrose preference ([1]; CRS, 24 hours after treatment, vs baseline) was “not significantly different than the baseline before stress exposure” and the social interaction scores ([2]; CRS, 24 hours after treatment, vs pre-stress) was “not significantly different than the pre-stress condition”. For the same molecule, the “persistence of effect on social interaction” value ([2]; despite further stress exposure) was 7 days.
With `Clc1cccc(SC2CCNCC2)n1` [anpirtoline] the “persistence of potentiation after washout” value [3] was over 60 min and the “potentiation of TA-CA1 EPSP slope” value ([3]; vs control slices) was “larger”.
For `CNC1(c2ccccc2Cl)CCCCC1=O` (stereo not drawn) [ketamine], the “time to restoration of sucrose preference and novelty suppressed feeding behaviors” value [4] is listed as 24 h, the “persistence of antidepressant effects” value [5] is listed as “up to two weeks” and the “time to improved mood and reduced depressive symptoms” value [5] is listed as 1 to 2 h.

From US11083732B2, “Use of negative modulators of GABA receptors containing alpha5 subunits as fast acting antidepressants” (University of Maryland, Baltimore, priority 2014, dated 2021)
